Like-named read-outs stand apart in the source and are kept apart here.
Tests used:
[1] = cited from earlier work; for reported tmax-values: previous studies
[2] = Rate of dissolution of THC, Ph. Eur. 2.9.3, 1 wt % SDS in water pH 7; format: physicochemical; details: 5 mg THC, pH 7, 36-41° C.
Method: The rate of dissolution of THC from the compressed tablets described in Example 2 was tested according to European Pharmacopeia (Ph. Eur. 2.9.3) for oral tablets (5 mg THC). The rate of dissolution of pure THC (5 mg) was also measured according to the same method for comparison.
The dissolution medium consisted of a solution of 1 wt % SDS in water. The pH of the medium had been adjusted to pH 7 with diluted HCl. During the experiments, the temperature of the dissolution media was maintained between 36 and 41° C. under stirring.
After dropping the tablets in the dissolution medium, samples were taken at various time intervals with a disposable syringe. The samples were filtered immediately over a syringe filter into a HPLC vial and analyzed by HPLC.
Tablets were prepared as in Example 2, except that the sucrose fatty ester (SML) was substituted by glyceryl monostearate (GMS). Dissolution tests as described in example 3 were performed with these tablets and the tablets described in Example 2.

Row | SMILES | time to maximal concentration of the active metabolite 11-OHTHC ([1]; published) [min] | reported tmax-values [1] [h] | Plasma THC maximum concentrations ([1]; after a 20 mg dose of oral THC (Ohlsson 1980)) [µg/L] | bioavailability ([1]; inhaled (Ohlsson 1982)) | time of peak concentrations post dose ([1]; oral) [h] | bioavailability ([1]; orally administered (Ohlsson 1982)) | % (w/w) of THC dissolved ([2]; 1 min) | % (w/w) of THC dissolved ([2]; 4 min) | % (w/w) of THC dissolved ([2]; 8 min) | % (w/w) of THC dissolved ([2]; 15 min)
1 | CCCCCc1cc(O)c2c(c1)OC(C)(C)[C@@H]1CCC(C)=C[C@@H]21 [dronabinol] | 120 to 204 |  |  |  |  |  |  |  |  | 
2 | CCCCCCC(C)(C)c1cc(O)c2c(c1)OC(C)(C)C1CCC(=O)CC21 (centres unmarked) [nabilone] |  | 2 to 4 |  |  |  |  |  |  |  | 
3 | CCCCCc1cc(O)c2c(c1)OC(C)(C)[C@@H]1CCC(C)=C[C@@H]21 [THC, Δ9-tetrahydrocannabinol] |  | 1 to 4 | 4.4 to 11.0 | up to 27% | 1 to 5 | approximately 6% | 1.0 % (w/w) | 3.5 % (w/w) | 5.8 % (w/w) | 10.2 % (w/w)
